Source: patent US12378224B2 (Dong-A Socio Holdings Co., Ltd., priority 2016, dated 2025)

Legend:
human MER (528-end) = human MER (528-end) (Homo sapiens (Human), UniProt Q12866); assay: HTRF Kinase Activity Biochemical Assay (KinEASE-TK); settings: 10 uM ATP
Outline: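 Recombinant human MER (528-end) phosphorylated biotin-TK peptide substrate, 1 h at room temperature. Reaction stopped with detection buffer containing 0.375 nM Eu3+-cryptate anti-TK antibody and 0.062 uM streptavidin-XL665, 1 h further. Activity taken as HTRF ratio 665/620 nm ×10,000, 340 nm excitation.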

[1] = target: BCR fusion to kinase domain of MerTK (Ba/F3-MerTK) (Homo sapiens, UniProt Q12866); assay: In Cell TAM Kinase Assay Using BaF3 Cellular System; format: cell-based, murine; settings: Ba/F3 BCR-kinase fusion proliferation, 72 hours, Cell Titer Glo; kinase not given; read-out: IC50
Chain of BCR fusion to kinase domain of MerTK (Ba/F3-MerTK) (Q12866 21-999 limits assumed, change not shown): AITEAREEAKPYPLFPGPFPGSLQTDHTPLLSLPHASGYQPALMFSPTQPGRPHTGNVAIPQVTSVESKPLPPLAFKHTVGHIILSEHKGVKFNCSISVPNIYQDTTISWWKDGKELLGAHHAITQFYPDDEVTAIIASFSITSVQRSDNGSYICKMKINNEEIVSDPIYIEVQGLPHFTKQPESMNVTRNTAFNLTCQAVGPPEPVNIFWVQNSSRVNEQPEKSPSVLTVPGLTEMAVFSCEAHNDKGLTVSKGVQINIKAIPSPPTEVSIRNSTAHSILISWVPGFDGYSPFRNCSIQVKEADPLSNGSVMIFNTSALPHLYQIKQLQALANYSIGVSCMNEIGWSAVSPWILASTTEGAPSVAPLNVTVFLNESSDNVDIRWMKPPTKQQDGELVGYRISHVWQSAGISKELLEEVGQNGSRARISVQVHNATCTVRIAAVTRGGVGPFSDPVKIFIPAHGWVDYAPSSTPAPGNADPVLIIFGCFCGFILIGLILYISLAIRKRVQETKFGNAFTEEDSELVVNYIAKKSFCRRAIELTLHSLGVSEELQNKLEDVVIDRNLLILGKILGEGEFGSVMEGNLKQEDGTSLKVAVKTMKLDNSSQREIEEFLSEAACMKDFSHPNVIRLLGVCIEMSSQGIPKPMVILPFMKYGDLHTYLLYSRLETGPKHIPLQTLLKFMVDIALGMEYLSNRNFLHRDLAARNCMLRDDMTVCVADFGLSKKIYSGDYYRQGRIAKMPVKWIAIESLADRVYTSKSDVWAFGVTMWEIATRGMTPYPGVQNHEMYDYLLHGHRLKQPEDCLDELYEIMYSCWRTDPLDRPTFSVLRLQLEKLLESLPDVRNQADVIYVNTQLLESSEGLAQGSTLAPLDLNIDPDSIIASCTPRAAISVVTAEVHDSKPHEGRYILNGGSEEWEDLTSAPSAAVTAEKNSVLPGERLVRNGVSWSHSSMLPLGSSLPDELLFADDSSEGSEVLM
Outline: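 Ba/F3 murine pro-B cells expressing BCR–MerTK kinase-domain fusion (IL-3 independent), seeded at 1,000 cells/well onto compound and grown 72 h. Viability read by CellTiter-Glo 2.0 luminescence after 30 min at room temperature.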

Chain of human MER (528-end) (Q12866 528-999 limits assumed): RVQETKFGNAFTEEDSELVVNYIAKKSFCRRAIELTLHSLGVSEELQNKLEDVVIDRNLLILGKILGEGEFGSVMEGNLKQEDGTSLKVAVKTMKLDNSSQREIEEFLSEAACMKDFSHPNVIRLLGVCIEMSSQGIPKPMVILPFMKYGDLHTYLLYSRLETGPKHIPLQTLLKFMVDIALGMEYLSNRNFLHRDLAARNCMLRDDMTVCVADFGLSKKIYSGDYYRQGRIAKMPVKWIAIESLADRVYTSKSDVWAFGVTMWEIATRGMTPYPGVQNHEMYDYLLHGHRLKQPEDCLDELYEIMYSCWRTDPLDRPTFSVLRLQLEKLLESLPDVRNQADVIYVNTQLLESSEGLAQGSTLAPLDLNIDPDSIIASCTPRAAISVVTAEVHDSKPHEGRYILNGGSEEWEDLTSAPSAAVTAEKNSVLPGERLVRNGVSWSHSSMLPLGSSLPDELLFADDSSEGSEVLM

SMILES | IC50 (human MER (528-end)) | IC50 [1]
Cn1cc(-c2cnc(N)c(C(=O)NC[C@@H]3CCCN3C(=O)c3cccc(-c4ccccc4)c3)c2)cn1 [Example 735, (S)—N-((1-([1,1′-biphenyl]-3-carbonyl)pyrrolidin-2-yl)methyl)-2-amino-5-(1-methyl-1H-pyrazol-4-yl)nicotinamide] | > 1 µM | > 1 µM
Cn1cc(-c2cnc(N)c(C(=O)NC[C@H]3CCCN3C(=O)c3cccc(-c4ccccc4)c3)c2)cn1 [Example 737, (R)—N-((1-([1,1′-biphenyl]-3-carbonyl)pyrrolidin-2-yl)methyl)-2-amino-5-(1-methyl-1H-pyrazol-4-yl)nicotinamide] | > 1 µM | > 1 µM
Cn1cc(-c2cnc(N)c(C(=O)NC[C@H]3CCN(C(=O)c4ccc(-c5ccccc5)cc4)C3)c2)cn1 [Example 740, (R)—N-((1-([1,1′-biphenyl]-4-carbonyl)pyrrolidin-3-yl)methyl)-2-amino-5-(1-methyl-1H-pyrazol-4-yl)nicotinamide] | > 1 µM | > 1 µM
Cn1cc(-c2cnc(N)c(C(=O)NC[C@H]3CCN(C(=O)c4cccc(-c5ccccc5)c4)C3)c2)cn1 [Example 741, (R)—N-((1-([1,1′-biphenyl]-3-carbonyl)pyrrolidin-3-yl)methyl)-2-amino-5-(1-methyl-1H-pyrazol-4-yl)nicotinamide] | > 1 µM | > 1 µM
Cn1cc(-c2cnc(N)c(C(=O)N[C@@H]3CCN(C(=O)c4ccc(-c5ccc(CO)cc5)cc4)C3)c2)cn1 [Example 747, (R)-2-amino-N-(1-(4′-(hydroxymethyl)-[1,1′-biphenyl]-4-carbonyl)pyrrolidin-3-yl)-5-(1-methyl-1H-pyrazol-4-yl)nicotinamide] | 0.1 to 1 µM | > 1 µM
Cn1cc(-c2cnc(N)c(C(=O)N[C@@H]3CCN(C(=O)c4ccc(-c5cccc(CO)c5)cc4)C3)c2)cn1 [Example 748, (R)-2-amino-N-(1-(3′-(hydroxymethyl)-[1,1′-biphenyl]-4-carbonyl)pyrrolidin-3-yl)-5-(1-methyl-1H-pyrazol-4-yl)nicotinamide] | 0.01 to 0.1 µM | 0.1 to 0.5 µM
Cn1cc(-c2cnc(N)c(C(=O)N[C@@H]3CCN(C(=O)c4ccc(-c5ccc(O)nc5)cc4)C3)c2)cn1 [Example 749, (R)-2-amino-N-(1-(4-(6-hydroxypyridin-3-yl)benzoyl)pyrrolidin-3-yl)-5-(1-methyl-1H-pyrazol-4-yl)nicotinamide] | > 1 µM | > 1 µM
Cn1cc(-c2cnc(N)c(C(=O)N[C@@H]3CCN(C(=O)c4ccc(-c5ccc6ccccc6c5)cc4)C3)c2)cn1 [Example 750, (R)-2-amino-5-(1-methyl-1H-pyrazol-4-yl)-N-(1-(4-(naphthalen-2-yl)benzoyl)pyrrolidin-3-yl)nicotinamide] | 0.01 to 0.1 µM | > 1 µM
Cn1cc(-c2cnc(N)c(C(=O)N[C@@H]3CCN(C(=O)c4ccc(C5=CCNCC5)cc4)C3)c2)cn1 [Example 753, (R)-2-amino-5-(1-methyl-1H-pyrazol-4-yl)-N-(1-(4-(1,2,3,6-tetrahydropyridin-4-yl)benzoyl)pyrrolidin-3-yl)nicotinamide] | > 1 µM | > 1 µM
CN1CC=C(c2ccc(C(=O)N3CC[C@@H](NC(=O)c4cc(-c5cnn(C)c5)cnc4N)C3)cc2)CC1 [Example 754, (R)-2-amino-N-(1-(4-(1-methyl-1,2,3,6-tetrahydropyridin-4-yl)benzoyl)pyrrolidin-3-yl)-5-(1-methyl-1H-pyrazol-4-yl)nicotinamide] | > 1 µM | > 1 µM
Cn1cc(-c2cnc(N)c(C(=O)N[C@@H]3CCN(C(=O)c4ccc(-c5ccc(C6=CCNCC6)cc5)cc4)C3)c2)cn1 [Example 755, (R)-2-amino-5-(1-methyl-1H-pyrazol-4-yl)-N-(1-(4′-(1,2,3,6-tetrahydropyridin-4-yl)-[1,1′-biphenyl]-4-carbonyl)pyrrolidin-3-yl)nicotinamide] | > 1 µM | > 1 µM
Cn1cc(-c2cnc(N)c(C(=O)N[C@@H]3CCN(C(=O)c4ccc(-c5ccc6c(ccn6C)c5)cc4)C3)c2)cn1 [Example 756, (R)-2-amino-N-(1-(4-(1-methyl-1H-indol-5-yl)benzoyl)pyrrolidin-3-yl)-5-(1-methyl-1H-pyrazol-4-yl)nicotinamide] | 0.1 to 1 µM | > 1 µM
Cn1cc(-c2cnc(N)c(C(=O)N[C@@H]3CCN(C(=O)c4ccc(-c5ccc6c(cnn6C)c5)cc4)C3)c2)cn1 [Example 757, (R)-2-amino-N-(1-(4-(1-methyl-1H-indazol-5-yl)benzoyl)pyrrolidin-3-yl)-5-(1-methyl-1H-pyrazol-4-yl)nicotinamide] | 0.1 to 1 µM | > 1 µM
CN(C)CCOc1ccc2cc(C(=O)N3CC[C@@H](NC(=O)c4cc(-c5cnn(C)c5)cnc4N)C3)ccc2c1 [Example 762] | 0.1 to 1 µM | > 1 µM
CN1CCCC1CCOc1ccc2cc(C(=O)N3CC[C@@H](NC(=O)c4cc(-c5cnn(C)c5)cnc4N)C3)ccc2c1 (stereo partly drawn) [Example 764] | 0.1 to 1 µM | > 1 µM
Cn1cc(-c2cnc(N)c(C(=O)N[C@@H]3CCN(C(=O)c4ccc5cc(OCCN6CCCC6)ccc5c4)C3)c2)cn1 [Example 765, (R)-2-amino-5-(1-methyl-1H-pyrazol-4-yl)-N-(1-(6-(2-(pyrrolidin-1-yl)ethoxy)-2-naphthoyl)pyrrolidin-3-yl)nicotinamide] | 0.1 to 1 µM | > 1 µM
CN(C)CCCOc1ccc2cc(C(=O)N3CC[C@@H](NC(=O)c4cc(-c5cnn(C)c5)cnc4N)C3)ccc2c1 [Example 766, (R)-2-amino-N-(1-(6-(3-(dimethylamino)propoxy)-2-naphthoyl)pyrrolidin-3-yl)-5-(1-methyl-1H-pyrazol-4-yl)nicotinamide] | 0.1 to 1 µM | > 1 µM
CN1CCC(COc2ccc3cc(C(=O)N4CC[C@@H](NC(=O)c5cc(-c6cnn(C)c6)cnc5N)C4)ccc3c2)CC1 [Example 767, (R)-2-amino-5-(1-methyl-1H-pyrazol-4-yl)-N-(1-(6-((1-methylpiperidin-4-yl)methoxy)-2-naphthoyl)pyrrolidin-3-yl)nicotinamide] | 0.1 to 1 µM | > 1 µM
Cn1cc(-c2cnc(N)c(C(=O)N[C@@H]3CCN(C(=O)c4ccc(OCc5ccc([N+](=O)[O-])cc5)cc4)C3)c2)cn1 [Example 769, (R)-2-amino-5-(1-methyl-1H-pyrazol-4-yl)-N-(1-(4-((4-nitrobenzyl)oxy)benzoyl)pyrrolidin-3-yl)nicotinamide] | 0.1 to 1 µM | > 1 µM
Cn1cc(-c2cnc(N)c(C(=O)N[C@@H]3CCN(C(=O)c4ccc(OCc5cccc([N+](=O)[O-])c5)cc4)C3)c2)cn1 [Example 770, (R)-2-amino-5-(1-methyl-1H-pyrazol-4-yl)-N-(1-(4-((3-nitrobenzyl)oxy)benzoyl)pyrrolidin-3-yl)nicotinamide] | 0.1 to 1 µM | > 1 µM
Nc1ncc(-c2ccc(F)nc2)cc1C(=O)N[C@@H]1CCN(C(=O)c2ccc(-c3ccc(F)cc3Cl)cc2)C1 [Example 774, (R)-6-amino-N-(1-(2′-chloro-4′-fluoro-[1,1′-biphenyl]-4-carbonyl)pyrrolidin-3-yl)-6^1-fluoro-[3,3′-bipyridine]-5-carboxamide] | 0.01 to 0.1 µM | 0.1 to 0.5 µM
